From publication PMC9225712, “Rational design of biodegradable sulphonamide candidates treating septicaemia by synergistic dual inhibition of COX-2/PGE2 axis and DHPS enzyme” (Journal of Enzyme Inhibition and Medicinal Chemistry, 2022)
Marks after values point to notes of the source that are not given here.

What was measured:
[1] = tested on: Bacillus subtilis (RCMB 0100162); assay: Inhibition zone, agar cup diffusion; conditions: RCMB0100162, 24 h, read-out: inhibition zones (IZ) B. subtillis
[2] = tested on: Escherichia coli (RCMB 010052); assay: Inhibition zone, agar cup diffusion; conditions: RCMB010052, 24 h, read-out: inhibition zones (IZ) E.coli
PGE2 = assay: Estimation of rat plasma PGE2; conditions: po 10 µmol/kg b.wt., 8 h after carrageenan; for % inhibition of PGE2-production: rat serum; for PGE2 serum conc.: rat, Mean ± SEM, n = 5
[3] = tested on: Pseudomonas aeruginosa (RCMB 0100243); assay: Inhibition zone, agar cup diffusion; conditions: RCMB0100243, 24 h, read-out: inhibition zones (IZ) P.aeruginosa
[4] = tested on: Streptococcus mutans (RCMB 0100172); assay: Inhibition zone, agar cup diffusion; conditions: RCMB0100172, 24 h, read-out: inhibition zones (IZ) S. mutans
gastric layers = assay: Gastric ulcerogenic activity; conditions: fasted male Wistar rats, oral 30 µmol/kg twice at 4 h interval
[5] = tested on: Gram-positive and Gram-negative bacteria; assay: In vitro antibacterial screening, whole panel; format: cell-based; conditions: whole bacterial panel, result in words
[6] = tested on: Proteus vulgaris (RCMB 010085); assay: Inhibition zone, agar cup diffusion; conditions: RCMB010085, 24 h, read-out: inhibition zones (IZ) P. vulgaris
[7] = tested on: carrageenan-induced paw edoema; assay: Carrageenan-induced paw edoema in mice; conditions: for ED50: Mus musculus, 8 h, read-out: ED50 (95% confidence level); for Thickness of edoema 0h / percentage anti-inflammatory activity (AI%) 2h / Thickness of edoema 2h / percentage anti-inflammatory activity (AI%) 4h / Thickness of edoema 4h / percentage anti-inflammatory activity (AI%) 6h / Thickness of edoema 6h / Thickness of edoema 8h: mice, po 10 µmol/kg b.wt.; for Thickness of edoema 0h: 0 h (before carrageenan); for Thickness of edoema 0h / Thickness of edoema 2h / Thickness of edoema 4h / Thickness of edoema 6h / Thickness of edoema 8h: Mean ± SEM, n = 5; for Thickness of edoema 2h: 2 h after carrageenan; for Thickness of edoema 4h: 4 h after carrageenan; for Thickness of edoema 6h: 6 h after carrageenan; for Thickness of edoema 8h: 8 h after carrageenan
[8] = tested on: Staphylococcus aureus (RCMB 0100183); assay: Inhibition zone, agar cup diffusion; conditions: RCMB0100183, 24 h, read-out: inhibition zones (IZ) S. aureus
ovine COX-1 = molecular target: T1, ovine COX-1 (Ovis aries, UniProt P05979); assay: In vitro COX-1 enzymatic assay (Cayman kit 560131); format: biochemical; conditions: Mean ± SEM of triplicate determinations
T1 construct: purchased Cayman Chemicals Inc. 560131
T1 sequence (P05979 25-600): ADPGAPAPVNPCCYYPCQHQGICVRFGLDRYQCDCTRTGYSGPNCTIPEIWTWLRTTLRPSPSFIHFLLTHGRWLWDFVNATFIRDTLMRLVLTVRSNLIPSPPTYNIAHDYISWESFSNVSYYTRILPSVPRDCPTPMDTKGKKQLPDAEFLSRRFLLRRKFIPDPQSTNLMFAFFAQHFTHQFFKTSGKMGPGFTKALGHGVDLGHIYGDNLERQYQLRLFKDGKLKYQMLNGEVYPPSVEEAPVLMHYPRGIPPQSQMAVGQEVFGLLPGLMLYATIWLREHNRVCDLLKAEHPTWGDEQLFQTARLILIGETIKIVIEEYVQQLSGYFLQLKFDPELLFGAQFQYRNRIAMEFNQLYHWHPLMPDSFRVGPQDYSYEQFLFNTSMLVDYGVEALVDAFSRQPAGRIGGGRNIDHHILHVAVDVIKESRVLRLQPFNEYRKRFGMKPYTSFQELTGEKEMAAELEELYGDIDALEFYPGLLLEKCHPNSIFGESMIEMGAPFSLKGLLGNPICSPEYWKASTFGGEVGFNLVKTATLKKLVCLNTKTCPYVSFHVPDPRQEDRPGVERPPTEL

[9] = tested on: Shigella dysenteriae (RCMB 0100542); assay: Inhibition zone, agar cup diffusion; format: cell-based; conditions: RCMB0100542, 24 h, read-out: inhibition zones (IZ) S. dysenteriae
human recombinant COX-2 = molecular target: T2, human recombinant COX-2 (Homo sapiens, UniProt P35354); assay: In vitro COX-2 enzymatic assay (Cayman kit 560131); conditions: for SI COX-1/COX-2: COX-2 selectivity index: COX-1 IC50/COX-2 IC50
T2 sequence (P35354 18-604): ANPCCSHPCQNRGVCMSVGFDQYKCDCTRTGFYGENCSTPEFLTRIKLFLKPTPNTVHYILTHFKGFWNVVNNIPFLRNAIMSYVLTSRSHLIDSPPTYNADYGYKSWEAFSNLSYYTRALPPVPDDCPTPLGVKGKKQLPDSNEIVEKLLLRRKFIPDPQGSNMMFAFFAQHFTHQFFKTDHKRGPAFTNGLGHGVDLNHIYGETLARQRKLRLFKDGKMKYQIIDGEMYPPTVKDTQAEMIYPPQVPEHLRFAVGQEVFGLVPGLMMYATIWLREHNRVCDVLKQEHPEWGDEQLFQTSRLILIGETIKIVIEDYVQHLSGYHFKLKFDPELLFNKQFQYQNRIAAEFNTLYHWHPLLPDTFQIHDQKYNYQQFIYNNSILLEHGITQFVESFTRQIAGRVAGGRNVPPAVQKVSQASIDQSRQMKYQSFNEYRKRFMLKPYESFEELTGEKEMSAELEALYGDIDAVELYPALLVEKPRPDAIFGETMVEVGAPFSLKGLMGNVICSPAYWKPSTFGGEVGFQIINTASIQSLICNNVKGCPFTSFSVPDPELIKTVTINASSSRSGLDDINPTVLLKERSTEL

S. aureus Smith = conditions: for ED50: Staphylococcus aureus, in Mus musculus, read-out: ED50 against S. aureus infection; for ED50, protective effect against bacteremic infection, Staphylococcus aureus: mice, challenge dose 9.5x10^6 CFU/mouse ip, intragastric once a day for 7 days, survival
[10] = tested on: Staphylococcus epidermidis (RCMB 0100183); assay: Inhibition zone, agar cup diffusion; conditions: RCMB0100183, 24 h, read-out: inhibition zones (IZ) S. epidermidis
E. coli C11 = conditions: for ED50, protective effect against bacteremic infection, Escherichia coli: mice, challenge dose 7.1x10^3 CFU/mouse ip, intragastric once a day for 7 days, survival
[11] = tested on: Salmonella typhi (RCMB 0100104); assay: Inhibition zone, agar cup diffusion; format: cell-based; conditions: Salmonella enterica, 24 h, read-out: inhibition zones (IZ) S. typhi

| SMILES | zone of inhibition at 1000 µg/mL [1] | zone of inhibition at 1000 µg/mL [2] | % inhibition of PGE2-production (PGE2) | PGE2 serum conc. (PGE2) | zone of inhibition at 1000 µg/mL [3] | zone of inhibition at 1000 µg/mL [4] | Gastric ulcerogenic effect, histopathological examination of gastric layers (gastric layers) | in vitro antibacterial activity [5] | zone of inhibition at 1000 µg/mL [6] | ED50 [7] | Thickness of edoema 0h [7] | percentage anti-inflammatory activity (AI%) 2h [7] | Thickness of edoema 2h [7] | percentage anti-inflammatory activity (AI%) 4h [7] | Thickness of edoema 4h [7] | percentage anti-inflammatory activity (AI%) 6h [7] | Thickness of edoema 6h [7] | Thickness of edoema 8h [7] | zone of inhibition at 1000 µg/mL [8] | IC50 (ovine COX-1) | other results |
| --- | --- | --- | --- | --- | --- | --- | --- | --- | --- | --- | --- | --- | --- | --- | --- | --- | --- | --- | --- | --- | --- |
| O=C(c1cc(/N=N/c2ccc(S(=O)(=O)Nc3ncccn3)cc2)ccc1O)N1CCOCC1 [Compound 5n, 4-((4-Hydroxy-3-(morpholine-4-carbonyl)phenyl)diazenyl)-N-(pyrimidin-2-yl) benzenesulfonamide] | 17 mm | 17 mm | 55.18% | 591.842 ± 5.96 pg/mL | 14 mm | 28 mm | gastrointestinal safety profile | weak in vitro antibacterial activity | 18 mm | 14.4 µmol/kg | 0.66 ± 0.004 mm | (-8.42%) | 1.03 ± 0.03 mm | (10.42%) | 1.29 ± 0.01 mm | (51.71%) | 0.99 ± 0.05 mm | 0.90 ± 0.01 mm | 16 mm | 10.6 ± 0.08 µM | zone of inhibition at 1000 µg/mL [9]: 24 mm; IC50 (human recombinant COX-2): 0.07 ± 0.0005 µM; SI COX-1/COX-2 (human recombinant COX-2): 153.6; ED50 (S. aureus Smith): 353 to 413 µmol/kg; ED50, protective effect against bacteremic infection, Staphylococcus aureus (S. aureus Smith): 397.6 µmol/kg/day; zone of inhibition at 1000 µg/mL [10]: 33 mm; ED50, protective effect against bacteremic infection, Escherichia coli (E. coli C11): 367.1 µmol/kg/day; zone of inhibition at 1000 µg/mL [11]: 14 mm |
| Cc1ccnc(NS(=O)(=O)c2ccc(/N=N/c3ccc(O)c(C(=O)N4CCOCC4)c3)cc2)n1 [Compound 5o, 4-((4-Hydroxy-3-(morpholine-4-carbonyl)phenyl)diazenyl)-N-(4-methylpyrimidin-2-yl) benzenesulfonamide] | 20 mm | 16 mm | 72.92% | 357.636 ± 7.48 pg/mL | 18 mm | 27 mm | erosion in the gastric layers | weak in vitro antibacterial activity | 19 mm | 13.3 µmol/kg | 0.65 ± 0.004 mm | (6.32%) | 0.89 ± 0.01^c mm | (43.06%) | 0.82 ± 0.02^c mm | (63.41%) | 0.75 ± 0.02^c mm | 0.64 ± 0.02^c mm | 21 mm | 12.9 ± 0.05 µM | zone of inhibition at 1000 µg/mL [9]: 23 mm; IC50 (human recombinant COX-2): 0.06 ± 0.0008 µM; SI COX-1/COX-2 (human recombinant COX-2): 211.5; ED50 (S. aureus Smith): 353 to 413 µmol/kg; ED50, protective effect against bacteremic infection, Staphylococcus aureus (S. aureus Smith): 352.7 µmol/kg/day; zone of inhibition at 1000 µg/mL [10]: 35 mm; ED50, protective effect against bacteremic infection, Escherichia coli (E. coli C11): 306.4 µmol/kg/day; zone of inhibition at 1000 µg/mL [11]: 18 mm |
| O=C(c1cc(/N=N/c2ccc(S(=O)(=O)Nc3ncccn3)cc2)ccc1O)N1CCCCC1 [Compound 5j, 4-((4-Hydroxy-3-(piperidine-1-carbonyl)phenyl)diazenyl)-N-(pyrimidin-2-yl) benzenesulfonamide] | 19 mm | 14 mm | 83.25% | 221.236 ± 4.62 pg/mL | 16 mm | 27 mm | gastrointestinal safety profile | weak in vitro antibacterial activity | 17 mm | 10.9 µmol/kg | 0.67 ± 0.02 mm | (15.79%) | 0.80 ± 0.01^c mm | (51.39%) | 0.70 ± 0.01^c mm | (70.73%) | 0.60 ± 0.01^c mm | 0.53 ± 0.01^c mm | 28 mm | 12.2 ± 0.06 µM | zone of inhibition at 1000 µg/mL [9]: 25 mm; IC50 (human recombinant COX-2): 0.05 ± 0.0005 µM; SI COX-1/COX-2 (human recombinant COX-2): 239.2; ED50 (S. aureus Smith): 302 µmol/kg; ED50, protective effect against bacteremic infection, Staphylococcus aureus (S. aureus Smith): 302.1 µmol/kg/day; zone of inhibition at 1000 µg/mL [10]: 30 mm; ED50 (E. coli C11; Escherichia coli, C11, in Mus musculus, read-out: ED50 against E.coli infection): 273 µmol/kg; ED50, protective effect against bacteremic infection, Escherichia coli (E. coli C11): 272.7 µmol/kg/day; zone of inhibition at 1000 µg/mL [11]: 15 mm |
